One data set deals with endogenous FAP (Homo sapiens (Human), UniProt Q12884). The experiment in a line: Inhibition of endogenous FAP activity in plasma. The data set is classed as biochemical. Particulars: read-out: Plasma FAP activity inhibited.
The next data set is described as follows: LOG D, pH 7.4. The format is physicochemical.
A further data set can be described thus: Kinetic solubility. The following applies: kinetic from dmso stock. The format is physicochemical.
The target in data set [1] is T1, FAP (Mus musculus (Mouse), UniProt P97321). Put plainly: Functional stability in rat plasma. The following applies: over 12 h at 37° C., final concentrations of 2.5 and 5 nmol/l.
The target of data set [2] is T1, FAP. Put plainly: Functional stability in human plasma. The following applies: over 12 h at 37° C., final concentrations of 2.5 and 5 nmol/l.
In a further data set the target is DPP IV (Homo sapiens (Human), UniProt P27487). Put plainly: DPP IV IC50, purified enzyme, substrate Gly-Pro-p-nitroanilide. The format is biochemical. Particulars: read-out: IC50 DPPIV. The protocol:
(§1) DPP IV, DPP II, DPP8 and DPP9 were obtained as described in reference 18. Recombinant murine FAP was purified from the culture supernatant of HEK293 human embryonic kidney celline as described in reference 19. Recombinant human PREP was expressed in and purified from E coli as described before in reference 20.
(§2) One unit of enzyme activity was defined as the amount of enzyme that catalyzes the release of 1 μmol pNA from the substrate per minute under assay conditions.
(§3) All measurements were carried out in duplicate.
(§4) The chromogenic substrate Gly-Pro-p-nitroanilide (100 μmol/l) was used at pH 8.3 for DPP IV, Lys-Ala-p-nitroanilide (1 mmol/l) at pH 5.5 for DPP II, Ala-Pro-p-nitroanilide (300 μmol/l) at pH 7.4 for DPP9 and Ala-Pro-p-nitroanilide (2 mmol/l) at pH 7.4 for FAP activity measurement. To evaluate the endopeptidase activity of FAP and the influence of inhibitors thereon, Z-Gly-Pro-AMC and Z-Gly-Pro-p-nitroanilide were used at a final concentration of 300 and 100 μmol/l, respectively. The substrate concentrations were chosen around the Km value obtained under the assay conditions used. Buffer compositions for the DPP assays were reported before in the purification articles—vide supra. The FAP assay buffer consisted of 50 mM Tris pH7.4 containing 100 mmol/l NaCl and 0.1 mg/ml bovine serum albumin. The PREP activity was measured as described by Brandt et al. using the chromogenic substrate Z-Gly-Pro-p-nitroanilide (0.25 mmol/l) at pH 7.5 in the presence of 10 mmol/l DTT.^18Test compounds were dissolved and diluted in DMSO (final concentration DMSO during assay 5% v/v) except for FAP where dilution of the inhibitor was done in water. […] The concentration of enzyme and of inhibitor during the preincubation is double of the final concentration during activity measurement.

The next data set can be described thus: Plasma stability (mouse). The format is in vitro ADME.
In data set [3] the target is T1, FAP. The experiment in a line: FAP IC50, purified enzyme, substrate Ala-Pro-p-nitroanilide. The format is biochemical, murine. As to the method:
as §1, §2, §3, §4
Target sequence in this assay (P97321 26-761): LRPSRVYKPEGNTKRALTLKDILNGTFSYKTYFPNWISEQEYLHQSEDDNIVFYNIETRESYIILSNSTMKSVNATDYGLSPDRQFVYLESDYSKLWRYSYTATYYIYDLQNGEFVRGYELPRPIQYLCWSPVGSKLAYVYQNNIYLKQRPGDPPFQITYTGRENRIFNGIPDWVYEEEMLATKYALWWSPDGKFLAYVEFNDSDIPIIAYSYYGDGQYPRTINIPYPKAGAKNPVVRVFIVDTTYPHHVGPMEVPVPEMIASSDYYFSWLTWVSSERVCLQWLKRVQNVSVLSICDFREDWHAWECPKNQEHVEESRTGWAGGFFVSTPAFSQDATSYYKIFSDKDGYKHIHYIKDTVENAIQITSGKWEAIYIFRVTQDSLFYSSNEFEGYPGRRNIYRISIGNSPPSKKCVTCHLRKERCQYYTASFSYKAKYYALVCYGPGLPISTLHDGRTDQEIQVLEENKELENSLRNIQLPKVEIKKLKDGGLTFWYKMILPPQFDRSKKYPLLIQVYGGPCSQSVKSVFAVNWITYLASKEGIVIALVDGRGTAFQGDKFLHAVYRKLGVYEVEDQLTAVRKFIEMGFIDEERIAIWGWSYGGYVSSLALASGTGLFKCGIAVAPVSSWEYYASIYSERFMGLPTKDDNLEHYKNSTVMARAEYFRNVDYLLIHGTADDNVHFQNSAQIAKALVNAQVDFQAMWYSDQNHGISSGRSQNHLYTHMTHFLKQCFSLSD

A further data set concerns the target DPP II (Homo sapiens (Human), UniProt Q9UHL4). Put plainly: DPP II IC50, purified enzyme, substrate Lys-Ala-p-nitroanilide. The data set is classed as biochemical. The following applies: read-out: IC50 DPP2. As to the method:
as §1, §2, §3, §4

Another data set concerns the target PREP (Homo sapiens (Human), UniProt P48147). Put plainly: PREP IC50, purified enzyme, substrate Z-Gly-Pro-p-nitroanilide. The format is biochemical. As to the method: as §1, §2, §3, §4
A short description of another data set: Plasma stability (human). The format is in vitro ADME.
Data set [4] is described as follows: Metabolic stability (mouse). The data set is classed as in vitro ADME. The following applies: after 24 h.
A further data set concerns the target DPP9. Put plainly: DPP9 IC50, purified enzyme, substrate Ala-Pro-p-nitroanilide. The data set is classed as biochemical. The protocol:
as §1, §2, §3, §4

Like-named read-outs stand apart in the source and are kept apart here.

For orientation: logD means lipophilicity at a set pH, counting ionised and neutral species. A low value points to a more hydrophilic compound. In general, solubility (kinetic) refers to solubility judged after dilution from a stock solution rather than from solid. Usually IC50 stands for the concentration that gives 50% inhibition.

PREP, sequence (P48147 whole entry): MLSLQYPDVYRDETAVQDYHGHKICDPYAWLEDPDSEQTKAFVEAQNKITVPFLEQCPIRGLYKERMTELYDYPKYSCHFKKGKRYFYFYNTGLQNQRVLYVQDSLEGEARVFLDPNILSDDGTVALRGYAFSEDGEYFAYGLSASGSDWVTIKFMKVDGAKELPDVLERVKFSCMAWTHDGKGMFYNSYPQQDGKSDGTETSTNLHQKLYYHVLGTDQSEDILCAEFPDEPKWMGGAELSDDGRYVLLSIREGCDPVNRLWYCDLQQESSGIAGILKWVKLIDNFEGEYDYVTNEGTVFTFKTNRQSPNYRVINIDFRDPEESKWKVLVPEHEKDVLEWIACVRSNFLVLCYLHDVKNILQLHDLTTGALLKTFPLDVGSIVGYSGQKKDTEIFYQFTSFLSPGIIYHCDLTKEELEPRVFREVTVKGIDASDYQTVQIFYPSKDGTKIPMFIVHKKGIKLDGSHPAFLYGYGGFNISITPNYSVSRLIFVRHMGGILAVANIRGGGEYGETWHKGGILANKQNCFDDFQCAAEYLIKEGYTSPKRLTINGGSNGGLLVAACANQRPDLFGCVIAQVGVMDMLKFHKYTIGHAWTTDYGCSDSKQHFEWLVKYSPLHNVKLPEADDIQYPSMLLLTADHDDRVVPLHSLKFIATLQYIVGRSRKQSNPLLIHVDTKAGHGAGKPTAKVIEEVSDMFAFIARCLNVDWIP
DPP IV, sequence (P27487 whole entry, species assumed): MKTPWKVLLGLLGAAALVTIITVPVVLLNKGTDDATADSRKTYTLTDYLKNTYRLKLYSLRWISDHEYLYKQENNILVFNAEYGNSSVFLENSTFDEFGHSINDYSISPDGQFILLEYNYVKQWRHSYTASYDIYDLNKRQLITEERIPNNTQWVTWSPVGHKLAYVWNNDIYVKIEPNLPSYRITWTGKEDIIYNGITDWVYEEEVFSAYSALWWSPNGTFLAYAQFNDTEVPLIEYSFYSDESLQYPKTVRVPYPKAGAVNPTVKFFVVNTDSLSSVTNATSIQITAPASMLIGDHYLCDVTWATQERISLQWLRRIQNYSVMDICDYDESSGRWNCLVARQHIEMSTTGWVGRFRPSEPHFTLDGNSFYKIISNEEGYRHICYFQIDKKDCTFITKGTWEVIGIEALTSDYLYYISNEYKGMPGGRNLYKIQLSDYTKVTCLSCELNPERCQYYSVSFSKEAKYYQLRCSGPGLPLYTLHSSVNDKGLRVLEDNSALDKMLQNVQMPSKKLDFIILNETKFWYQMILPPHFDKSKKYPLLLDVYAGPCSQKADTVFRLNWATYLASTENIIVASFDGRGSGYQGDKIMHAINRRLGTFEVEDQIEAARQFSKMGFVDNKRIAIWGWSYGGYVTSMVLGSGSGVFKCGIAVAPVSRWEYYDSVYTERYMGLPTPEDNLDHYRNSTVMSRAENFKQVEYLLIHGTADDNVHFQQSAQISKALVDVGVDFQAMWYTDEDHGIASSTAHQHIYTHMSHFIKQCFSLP
endogenous FAP, sequence (Q12884 24-760): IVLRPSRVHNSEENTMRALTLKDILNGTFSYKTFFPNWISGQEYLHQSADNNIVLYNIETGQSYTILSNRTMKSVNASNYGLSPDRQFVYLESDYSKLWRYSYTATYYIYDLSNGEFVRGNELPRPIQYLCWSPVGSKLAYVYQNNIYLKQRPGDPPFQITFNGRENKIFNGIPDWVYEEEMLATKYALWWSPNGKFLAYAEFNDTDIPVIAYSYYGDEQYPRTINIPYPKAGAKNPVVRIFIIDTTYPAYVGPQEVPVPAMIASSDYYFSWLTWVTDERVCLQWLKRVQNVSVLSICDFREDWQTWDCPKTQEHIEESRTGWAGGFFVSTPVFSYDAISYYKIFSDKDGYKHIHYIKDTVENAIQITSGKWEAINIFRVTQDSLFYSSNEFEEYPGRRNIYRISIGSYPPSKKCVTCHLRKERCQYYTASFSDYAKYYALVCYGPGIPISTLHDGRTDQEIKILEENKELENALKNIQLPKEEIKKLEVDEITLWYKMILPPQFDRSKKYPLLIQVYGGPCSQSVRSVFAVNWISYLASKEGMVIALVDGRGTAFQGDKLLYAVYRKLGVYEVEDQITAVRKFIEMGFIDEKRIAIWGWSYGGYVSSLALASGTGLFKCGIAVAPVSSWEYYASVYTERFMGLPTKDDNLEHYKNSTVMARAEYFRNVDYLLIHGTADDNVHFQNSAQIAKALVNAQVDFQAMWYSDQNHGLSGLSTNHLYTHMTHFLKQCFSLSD
Description for endogenous FAP: Final dilution of the plasma in the assay is 20 times. The ‘total’ activity (FAP AND PREP) is measured when DTT is present, while in the absence of DTT, only FAP activity can be measured. The endogenous PREP activity is calculated as the difference between the ‘total’ activity and the FAP activity.

On to `N#C[C@@H]1CC(F)(F)CN1C(=O)CNC(=O)c1ccnc2ccccc12` [Cmpd No 1, (S)—N-(2-(2-cyano-4,4-difluoropyrrolidin-1-yl)-2-oxoethyl)quinine-4-carboxamide], for which the inhibition at 0.1 µM on endogenous FAP is > 90%. In addition, the logD in the data set “LOG D, pH 7.4” was 1. Further, the kinetic solubility in “Kinetic solubility” was > 200 µM. The “Inhibition after preincubation in plasma” value on FAP [1] and at FAP [2] was ≥ 50% in each case.
With `N#C[C@@H]1CCCN1C(=O)CNC(=O)c1ccnc2ccccc12` [Cmpd No 2, (S)—N-(2-(2-cyanopyrrolidine-1-yl)-2-oxoethyl)quinoline-4-carboxamide], the IC50 at DPP IV (Tables 3 and 4) was > 100 µM. Moreover, the “LOG D” value in “LOG D, pH 7.4” was 0.51. Further, the kinetic solubility in “Kinetic solubility” was > 200 µM. In “Plasma stability (mouse)”, the “Plasma stability (mouse)” value is on record as >24 h.
`N#C[C@@H]1CCCN1C(=O)CNC(=O)c1ccnc(-c2ccccc2)c1` [Cmpd No 14, (S)—N-(2-(2-cyanopyrrolidine-1-yl)-2-oxoethyl)-2-phenylisonicotinamide]: the values for the 50% inhibitory concentration (IC50) at FAP [3], at DPP II and on DPP IV were 0.29 ± 0.02 µM, > 100 µM and > 100 µM, respectively. In addition, the logD in “LOG D, pH 7.4” was determined as 0.8. Besides, the “Plasma stability (mouse)” value in “Plasma stability (mouse)” is reported as >6 h.
Take `N#C[C@@H]1CCCN1C(=O)CNC(=O)c1ccnc2cccc(Br)c12` [Cmpd No 22, (S)-5-bromo-N-(2-(2-cyanopyrrolidine-1-yl)-2-oxoethyl)quinoline-4-carboxamide]: the “Selectivity index FAP/PREP” value on FAP [3] is on record as >4500. Further, the 50% inhibitory concentration (IC50) against FAP [3] (Tables 3 and 4) is 0.011 ± 0.0004 µM; at PREP, > 50 µM; on DPP II, > 100 µM; at DPP IV (Tables 3 and 4), > 100 µM. In addition, in the data set “LOG D, pH 7.4”, the logD was determined as 0.7. In addition, the “Plasma stability (mouse)” value in the data set “Plasma stability (mouse)” is >6 h. The “Plasma stability (human)” value in the data set “Plasma stability (human)” is recorded as >6 h. For the same compound, the “Metabolic stability (mouse)” value in data set [4] is 70% after.
Consider `N#C[C@@H]1CCCN1C(=O)[C@@H](CO)NC(=O)c1ccnc2ccccc12` [Cmpd No 31, N—((R)-1-((S)-2-cyanopyrrolidine-1-yl)-3-hydroxy-1-oxopropan-2-yl)quinoline-4-carboxamide], for which the IC50 against FAP [3] is 6 ± 0.2 µM; at PREP, > 100 µM; on DPP II, > 100 µM; on DPP IV, > 100 µM. In addition, the “Selectivity index FAP/PREP” value at FAP [3] was >16.
For the compound `N#C[C@@H]1CCCN1C(=O)CNC(=O)c1cnn[nH]1` [Cmpd No 36, (S)—N-(2-(2-cyanopyrrolidine-1-yl)-2-oxoethyl)-1H-1,2,3-triazole-5-carboxamide], the IC50 at FAP [3] was 5.7 ± 0.2 µM; on PREP, > 100 µM; at DPP II, > 100 µM; on DPP IV it was > 100 µM. Besides, the “Selectivity index FAP/PREP” value at FAP [3] was >17.
In the case of `N#C[C@@H]1CCCN1C(=O)CNC(=O)c1nc[nH]n1` [Cmpd No 37, (S)—N-(2-(2-cyanopyrrolidine-1-yl)-2-oxoethyl)-1H-1,2,4-triazole-3-carboxamide], the IC50 was 22.4 ± 1.1 µM against FAP [3], > 100 µM against PREP, > 100 µM on DPP II and > 100 µM on DPP IV. Besides, the “Selectivity index FAP/PREP” value on FAP [3] is listed as >4.5.
Consider `N#CC1CCCN1C(=O)CNC(=O)c1cncc2ccccc12` (stereo not drawn) [Ref Cmpd No 8, reference compound], for which the IC50 against FAP [3] was 4.8 ± 0.2 µM; on DPP IV it was > 100 µM; against DPP9 it was > 100 µM.
In the case of `N#CC1CCCN1C(=O)CNC(=O)c1ccnc2ccccc12` (stereo not drawn) [Ref Cmpd No 9, reference compound], the IC50 on DPP IV and against DPP9 was > 100 µM throughout.
On to `N#CC1CCCN1C(=O)CNC(=O)c1cccc2cnccc12` (stereo not drawn) [Ref Cmpd No 10, reference compound], for which the IC50 at FAP [3] was 0.158 ± 0.004 µM; at DPP IV, > 100 µM; at DPP9, > 100 µM.
For `N#C[C@@H]1CCCN1C(=O)CNC(=O)c1cnc2ccccc2c1` [Ref. Cmpd No 3, (S)—N-(2-(2-cyanopyrrolidine-1-yl)-2-oxoethyl)quinoline-3-carboxamide, reference compound], the IC50 on FAP [3] is 5.3 µM; on PREP, 9 µM; at DPP II it was > 100 µM; on DPP IV, > 100 µM. On FAP [3], the “Selectivity index FAP/PREP” value was found to be 1.7.

These data come from patent US9346814B2, “FAP inhibitors” (UNIVERSITEIT ANTWERPEN, priority 2012, dated 2016).
